Measured values taken from patent US20050014811A1, “Substituted benzimidazole compounds and their use for the treatment of cancer” (Aventis Pharma S.A., priority 2001, published 2005).

target: CDK2/CyclinE (Homo sapiens, UniProt P24941); assay: CDK2/CyclinE Flashplate assay, 96-well format, biotinylated-Rb peptide substrate; assay type: biochemical; conditions: not given
Protocol: This is a CDK2/CyclinE kinase assay in a 96-well Streptavidin-coated Flashplate with a biotinylated-Rb peptide substrate.
(§1) Each point is tested in duplicate
Biotinylated-Rb: Biotin-[…]-OH
• 1. Prepare substrate: 1 mg/ml solution made fresh in PBS. • 2. Add 4 μg per well to the Flashplate. • 3. Incubate for 2 hours at RT. • 4. From 10 mM inhibitor stocks in DMSO, make 1 mM, 300 μM, 100 μM, 30 μM and 10 μM series of dilution in DMSO. • 5. Was the Flashplate 3 times with 300 μl PBS to remove unbound peptide substrate. • 6. Add the CDK2/CyclinE kinase: 200 ng per well, in a volume of 90 μl in kinase buffer (except for “no enzyme” control wells). • 7. Add 1 μl per well of inhibitor to test 10 μM, 3 μM, 1 μM, 0.3 μM and 0.1 μM in final concentration per 100 μl in each well. • 8. Shake gently the Flashplate 1 minute. • 9. Incubate 30 minutes on wet ice. • 10. Initiate the reaction with 10 μl kinase buffer containing 1 μM final cold ATP and 1 μCi final ^33P-ATP per well. • 11. Shake gently the Flashplate 1 minute. • 12. Incubate 45 minutes at RT (no shaking). • 13. Wash the Flashplate 3 times with 300 μl PBS
14. Count to detect the incorporation of ^33P-ATP by the kinase to the Rb phosphorylation site.

Row | IC50 | Compound
1 | 130 nM | CN(C)CCNC(=O)Nc1nc2cc(OS(=O)(=O)c3ccc(NC4CCCC4)cc3)ccc2[nH]1 [Example 44, 4-Cyclopentylamino-benzenesulfonic acid 2-[3-(2-dimethylamino-ethyl)-ureido]-1H-benzoimidazol-5-yl ester]
2 | 100 nM | O=C(NCc1cccnc1)Nc1nc2cc(OS(=O)(=O)c3ccc(-n4ccnc4)cc3)ccc2[nH]1 [Example 57-j, 4-Imidazol-1-yl-benzenesulfonic acid 2-(3-pyridin-3-ylmethyl-ureido)-1H-benzoimidazol-5-yl ester]
3 | 100 nM | O=C(NCc1ccccc1F)Nc1nc2cc(OS(=O)(=O)c3ccc(NC4CCCC4)cc3)ccc2[nH]1 [Example 58-h, 4-Cyclopentylamino-benzenesulfonic acid 2-[3-(2-fluoro-benzyl)-ureido]-1H-benzoimidazol-5-yl ester]
4 | 800 nM | COC(=O)Nc1nc2cc(OS(=O)(=O)c3ccc(-c4ccon4)s3)ccc2[nH]1 [Example 62-c, 5-Isoxazol-3-yl-thiophene-2-sulfonic acid 2-methoxycarbonylamino-1H-benzoimidazol-5-yl ester]
5 | 1500 nM | COC(=O)Nc1nc2cc(OS(=O)(=O)c3cccc(OC(F)(F)F)c3)ccc2[nH]1 [Example 62-f, 3-Trifluoromethoxy-benzenesulfonic acid 2-methoxycarbonylamino-1H-benzoimidazol-5-yl ester]

target: CDK4/CyclinD1 (Homo sapiens, UniProt P11802); assay: CDK4/CyclinD1 Flashplate assay, 96-well format, biotinylated-Rb peptide substrate; assay type: biochemical; conditions: not given
Protocol: This is a CDK4/CyclinD1 kinase assay in a 96-well Streptavidin-coated Flashplate with a biotinylated-Rb peptide substrate.
as §1
Biotinylated-Rb: Biotin-[…]
• 1. Prepare substrate: 1 mg/ml solution made fresh in PBS. • 2. Add 100 μg per well to the Flashplate. • 3. Incubate for 2 hours at RT. • 4. From 10 mM inhibitor stocks in DMSO, make 1 mM, 300 μM, 100 μM, 30 μM and 10 μM series of dilution in DMSO. • 5. Wash the Flashplate 3 times with 300 μl PBS to remove unbound peptide substrate. • 6. Add the CDK4/CyclinD1 kinase: 70 ng per well, in a volume of 90 μl in kinase buffer (except for “no enzyme” control wells). • 7. Add 1 μl^1 per well of inhibitor to test 10 μM, 3 μM, 1 μM, 0.3 μM and 0.1 μM in final concentration per 100 μl in each well. • 8. Shake gently the Flashplate 1 minute. • 9. Incubate 30 minutes on wet ice. • 10. Initiate the reaction with 10 μl kinase buffer containing 1 μM final cold ATP and 1 μCi final ^33P-ATP per well. • 11. Shake gently the Flashplate 1 minute. • 12. Incubate 45 minutes at RT (no shaking). • 13. Wash the Flashplate 3 times with 300 μl PBS • 14. Count to detect the incorporation of ^33P-ATP by the kinase to the Rb phosphorylation site.

Sequence of CDK4/CyclinD1 (P11802 whole entry, species assumed): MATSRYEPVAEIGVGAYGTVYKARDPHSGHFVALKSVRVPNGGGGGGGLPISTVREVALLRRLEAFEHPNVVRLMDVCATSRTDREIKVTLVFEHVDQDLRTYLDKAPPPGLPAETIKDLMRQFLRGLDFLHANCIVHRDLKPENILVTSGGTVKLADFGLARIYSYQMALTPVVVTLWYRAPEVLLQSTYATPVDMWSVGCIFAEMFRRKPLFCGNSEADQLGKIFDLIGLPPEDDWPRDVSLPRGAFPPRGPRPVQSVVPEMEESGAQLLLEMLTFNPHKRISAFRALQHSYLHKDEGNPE
Sequence of CDK4/CyclinD1 (P24385 whole entry partner, species assumed): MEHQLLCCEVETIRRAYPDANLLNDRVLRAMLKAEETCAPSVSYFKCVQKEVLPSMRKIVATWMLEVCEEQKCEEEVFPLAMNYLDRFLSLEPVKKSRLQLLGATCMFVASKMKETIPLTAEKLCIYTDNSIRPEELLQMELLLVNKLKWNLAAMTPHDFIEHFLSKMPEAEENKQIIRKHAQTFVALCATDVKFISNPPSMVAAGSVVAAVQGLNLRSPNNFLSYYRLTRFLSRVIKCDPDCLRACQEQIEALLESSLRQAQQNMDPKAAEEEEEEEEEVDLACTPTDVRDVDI

Row | inhibition at 10 µM | Compound
6 | 54% | COCCNC(=O)Nc1nc2cc(OS(=O)(=O)c3ccc(OCc4ccccc4)cc3)ccc2[nH]1 [Example 78-o, 4-Benzyloxy-benzenesulfonic acid 2-[3-(2-methoxy-ethyl)-ureido]-1H-benzoimidazol-5-yl ester]
7 | 88% | COCCNC(=O)Nc1nc2cc(OS(=O)(=O)c3ccc(NCCN4CCOCC4)cc3)ccc2[nH]1 [Example 78-s, 4-(2-Morpholin-4-yl-ethylamino)-benzenesulfonic acid 2-[3-(2-methoxy-ethyl)-ureido]-1H-benzoimidazol-5-yl ester]
8 | 55% | O=C(NCCN1CCOCC1)Nc1nc2cc(OS(=O)(=O)c3ccc(NCC4CCNCC4)cc3)ccc2[nH]1 [Example 78-t, 4-[(Piperidin-4-ylmethyl)-amino)-benzenesulfonic acid 2-[3-(2-morpholin-4-yl-ethyl)-ureido]-1H-benzoimidazol-5-yl ester]
9 | 46% | COCCNC(=O)Nc1nc2cc(OS(=O)(=O)c3ccc(NCC4CCNCC4)cc3)ccc2[nH]1 [Example 78-v, 4-[(Piperidin-4-ylmethyl)-amino]-benzenesulfonic acid 2-[3-(2-methoxy-ethyl)-ureido]-1H-benzoimidazol-5-yl ester]
10 | 90% | O=C(NCCN1CCOCC1)Nc1nc2cc(OS(=O)(=O)c3ccc(NCc4ccccc4)cc3)ccc2[nH]1 [Example 78-w, 4-Benzylamino-benzenesulfonic acid 2-[3-(2-morpholin-4-yl-ethyl)-ureido]-1H-benzoimidazol-5-yl ester]
11 | 100% | O=C(NCCF)Nc1nc2ccc(OS(=O)(=O)c3ccc(NCCF)cc3)cc2[nH]1 [Example 80-c, 4-(2-Fluoro-ethylamino)-benzenesulfonic acid 2-[3-(2-fluoro-ethyl)-ureido]-3H-benzoimidazol-5-yl ester]
12 | 103% | COCC(O)CNC(=O)Nc1nc2ccc(OS(=O)(=O)c3ccc(NCC(O)COC)cc3)cc2[nH]1 (centres unmarked) [Example 80-m, 4-(2-Hydroxy-3-methoxy-propylamino)-benzenesulfonic acid 2-[3-(2-hydroxy-3-methoxy-propyl)-ureido]-3H-benzoimidazol-5-yl ester]
13 | 92% | O=C(NCCN1CCOCC1)Nc1nc2ccc(OS(=O)(=O)c3ccc(NCc4ccccn4)cc3)cc2[nH]1 [Example 82-h, 4-[(Pyridin-2-ylmethyl)-amino]-benzene sulfonic acid 2-[3-(2-morpholin-4-yl-ethyl)-ureido]-3H-benzimidazol-5-yl ester]

same assay, conditions: at 10 μM

Row | inhibition of CDK4/cyclinD1 at 10 μM | Compound
14 | 93% inhibition at 10 μM | O=C(NCc1ccccn1)Nc1nc2cc(OS(=O)(=O)c3ccc(NCC4CCNCC4)cc3)ccc2[nH]1 [Example 78-u]
